Source: article PMC12756790, “Site-Selective Protein Modification via Peptide-Directed Proximity Catalysis” (ACS Omega, 2025)

Columns and labels:
RNase S = tested on: RNase S; set-up: method as in Kim and Raines, Protein Sci. 1993 (ref 26); conditions: S-peptide cleaved from N-terminal domain of RNase A; ref Kim and Raines, Protein Sci. 1993 (ref 26); cited from earlier work
insulin [1] = biological target: T1, insulin (Homo sapiens, UniProt P01308); experiment: QCM-D binding of gold-tethered peptides to insulin; conditions: predicted from QCM-D of model peptides, 'noting the assumptions detailed above'
From the text: To predict whether the insulin-binding capability of P1 would be maintained after the introduction of a pyridinium oxime catalyst, peptides bearing either an N- or C-terminal cysteine (C-P1 and P1-C, respectively) were first synthesized and tethered to a gold sensor for quartz crystal microbalance with dissipation monitoring (QCM-D) analysis. It is important to note that these model peptides lacked the positive charge that would be introduced upon installation of a pyridinium oxime, and so evidence of binding was expected to be indicative of binding potential, rather than providing an exact measure of binding affinity.
Sensor preparation: QCM-D gold sensors (QSX 301, Biolin Scientific) were cleaned by UV–ozone treatment (30 min), followed by sonication in a 2% Hellmanex III solution (5 min) and then sonication in ultrapure water (5 min). Sensors were then dried with N2 […]
Binding studies: Following cleaning, each sensor was installed into the flow modules of a Q-Sense E4, QFM 401 system by Biolin Scientific. Each chamber was then filled with Milli-Q water at a flow rate of 100 μL/min controlled by a four-channel peristaltic pump. To achieve a stable baseline, PBS was left to flow through the modules at 100 μL/min until the drift in frequency was <±1 Hz over 10 min. […]

insulin [2] = biological target: T1, insulin; experiment: peptide-directed proximity catalysis labeling of insulin, intact protein LC-MS; type: biochemical; conditions: control (scrambled peptide, peptide lacking PyOx, or PyOx-azide) with biotin-NASA 3b, pH 7.4, 2 h, 22 °C
Method: With these reagents in hand, we attempted peptide-directed proximity catalysis on insulin. Initial experiments were performed in pH 7.4 phosphate buffer at a concentration of 50 μM, which was above the K d calculated for peptide binding (Figure ). Varying equivalents of pyridinium oxime peptide P1-(PyOx) 1 (0, 1.25, 2.5, 5, or 10 equiv wrt protein) were then added, followed by the addition of biotin–NASA 3b (20 equiv wrt protein). […] After 2 h at room temperature (22 °C), reactions were analyzed by intact protein liquid chromatography mass spectrometry (LC-MS). […] Further controls using either a scrambled peptide (FYRTGF-(PyOx)1), peptide lacking the pyridinium oxime P1, or pyridinium oxime-azide 2 also gave no labeling, providing further evidence that labeling was mediated by a specific protein–peptide binding interaction, and catalyzed by the pyridinium oxime motif.
General protocol: A solution of PyOx-peptide probe ([…] in pH 7.4 PBS, 25 µL, 7.4 PBS, 25 µL, 1.25 nmol; Final concentration 25 µM ) and shaken for 30 min . A solution of biotin-NASA 3b (25 mM in DMSO, 1 µL, 25 nmol; Final concentration 490 µM) was then added and the mixture shaken at room temperature for 2 h. Samples were then analysed by LC-MS without purification.
Figure S5: Deconvoluted mass spectra from general labelling protocol showing modified and unmodified insulin. […]

T1 sequence (P01308 25-54 limits assumed): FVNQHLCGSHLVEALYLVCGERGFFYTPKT
T1 sequence (P01308 90-110 limits assumed): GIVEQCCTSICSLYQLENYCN

Row | predicted affinity for target protein (insulin [1]) | insulin labeling, controls (insulin [2]) | Substance | binding affinity to remaining parent protein RNase S (RNase S)
1 |  |  | KETAAAKFERQHMDSSTSA [P2] | nM binding affinty
2 | μM affinity | no labeling | RGFFYT [P1] | 
3 |  | no labeling | FYRTGF-(PyOx)1 [scrambled peptide control] | 
